Measurements: patent publication US11590129B2, “Combination therapy with an antitumor alkaloid” (PHARMA MAR, S.A., priority 2010, dated 2023)

Experiments:
HT1080 tumors = experiment: Human fibrosarcoma (HT1080) orthotopically implanted in athymic nude mice, total diameter (tumor+leg) % T/C; format: in vivo
Method: Female athymic nude mice (Harlan Laboratories Models, S.L. (Barcelona, Spain) were utilized for all experiments. Animals were housed in individually ventilated cages, up to ten per cage in a 12-hour light-dark cycle at 21-23° C. and 40-60% humidity. The mice were allowed free access to irradiated standard rodent diet and sterilized water. Animals were acclimated for at least 5 days prior to tumor implantation with a tumor cell suspension.
HT1080 cells were grown at 37° C. with 5% CO2 in Minimum Essential Medium Eagle (MEME). Each animal was orthotopically implanted into gastroecnemius muscle by an intramuscular injection using 26G needle and a 1 cc syringe, with 5×10^6 HT1080 cells, from in vitro passage 9, suspended in serum free medium, without antibiotics.
Total diameter (tumor+leg) measurements were determined by using digital caliper (Fowler Sylvac, S235PAT). This total diameter and animal body weights were measured 2-3 times per week starting from the first day of treatment.
Treatment tolerability was assessed by monitoring body weight evolution, clinical signs as well as evidences of local damage in the injection site.
PM01183 was provided in the form of vials of lyophilized PM01183 cake which was reconstituted with water for infusion to a concentration of 0.2 mg/mL. The PM01183 stock solution was further diluted in 5% glucose solution for injection to the dosing formulation concentrations. Dacarbazine was provided in the form of a solution prepared by diluting the product with 5% glucose solution for injection to the target final concentration.
Dose level groups were administered either as single agents or in combination.
Comparison of the median total diameter (tumor+leg) in the treatment groups (T) to the median total diameter (tumor+leg) in the control group (T/C×100%) was used for evaluation of the antitumor efficacy.

[1] = tested on: MDA-MB-231 human breast adenocarcinoma cell line; experiment: cells; settings: Homo sapiens, MDA-MB-231, 72 h
[2] = tested on: RXF-393 human kidney carcinoma cell line; experiment: cells; settings: Homo sapiens, RXF 393, 72 h
[3] = tested on: PC-3 human prostate cancer cell line; experiment: cells; settings: Homo sapiens, PC-3, 72 h
Outline: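 Cells seeded at 5,000/well, grown 24 h drug-free, then exposed to vehicle or test compounds for 72 h. Viability by MTT reduction (8 h, 37 °C), formazan dissolved in DMSO. Values given as percentage of control cell growth.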

[4] = tested on: HepG2 human hepatocellular liver carcinoma cell line; experiment: MTT cytotoxicity assay in HepG2 cells: IC50 of single agents and combinations with PM01183; format: cell-based; settings: Homo sapiens, HepG2, 72 h
[5] = tested on: IGROV-1 human ovarian adenocarcinoma cell line; experiment: cells; settings: Homo sapiens, IGROV-1, 72 h
[6] = tested on: SK-MEL-2 human melanoma cell line; experiment: cells; settings: Homo sapiens, SK-MEL-2, 72 h
Outline: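 SK-MEL-2 melanoma cells (5,000/well) grown 24 h drug-free, then exposed 72 h to vehicle or test compounds. Viability by MTT reduction (8 h, 37 °C), formazan dissolved in DMSO; results expressed as percentage of control cell growth.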

[7] = tested on: A549 human lung carcinoma cell line; experiment: MTT cytotoxicity assay in A549 cells: IC50 of single agents and combinations with PM01183; format: cell-based; settings: Homo sapiens, A549, 72 h
Outline: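 A549 cells seeded at 5,000 per well, grown 24 h drug-free, then exposed to vehicle or compounds for 72 h, either singly or combined with PM01183. Combination responses plotted against dose ratio relative to an additivity line.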

[8] = tested on: PANC-1 human pancreatic carcinoma cell line; experiment: cells; settings: Homo sapiens, PANC-1, 72 h
Outline: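 Cells seeded at 5,000/well, left 24 h drug-free, then exposed to test compounds for 72 h. Viability read by MTT reduction (MTT added for 8 h at 37° C, formazan dissolved in DMSO).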

[9] = tested on: HT-29 human colon adenocarcinoma cell line; experiment: cells; settings: Homo sapiens, HT-29, 72 h
Outline: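 HT-29 cells (5,000/well) were attached for 24 h, then exposed to vehicle or compounds for 72 h. Viability was read by MTT reduction, with 8 h MTT at 37° C and formazan dissolved in DMSO. Values are % of control cell growth.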

[10] = PM01183 0.135 mg/kg iv days 0,7

Structure (SMILES): COc1ccc2[nH]c3c(c2c1)CCN[C@]31CS[C@@H]2c3c(OC(C)=O)c(C)c4c(c3[C@H](COC1=O)N1[C@@H]2[C@H]2c3c(cc(C)c(OC)c3O)C[C@@H]([C@@H]1O)N2C)OCO4 [PM01183]
- % T/C on day 0 (HT1080 tumors; PM01183 0.045 mg/kg): 100%
- % T/C on day 2 (HT1080 tumors; PM01183 0.045 mg/kg): 77.8%
- % T/C on day 4 (HT1080 tumors; PM01183 0.045 mg/kg): 74.3%
- % T/C on day 7 (HT1080 tumors; PM01183 0.045 mg/kg): 94.2%
- % T/C on day 9 (HT1080 tumors; PM01183 0.045 mg/kg): 80.0%
- % T/C on day 11 (HT1080 tumors; PM01183 0.045 mg/kg): 74.0%
- % T/C on day 14 (HT1080 tumors; PM01183 0.045 mg/kg): 80.5%
- % T/C on day 16 (HT1080 tumors; PM01183 0.045 mg/kg): 91.1%
- % T/C on day 0 (HT1080 tumors; PM01183 0.09 mg/kg): 100%
- % T/C on day 2 (HT1080 tumors; PM01183 0.09 mg/kg): 66.7%
- % T/C on day 4 (HT1080 tumors; PM01183 0.09 mg/kg): 57.1%
- % T/C on day 7 (HT1080 tumors; PM01183 0.09 mg/kg): 65.4%
- % T/C on day 9 (HT1080 tumors; PM01183 0.09 mg/kg): 48.0%
- % T/C on day 11 (HT1080 tumors; PM01183 0.09 mg/kg): 42.7%
- % T/C on day 14 (HT1080 tumors; PM01183 0.09 mg/kg): 45.8%
- % T/C on day 16 (HT1080 tumors; PM01183 0.09 mg/kg): 56.4%
- % T/C (median total diameter, tumor+leg) on day 9 (HT1080 tumors; [10]): 36.0%
- % T/C (median total diameter, tumor+leg) on day 11 (HT1080 tumors; [10]): 30.2%
- % T/C (median total diameter, tumor+leg) on day 14 (HT1080 tumors; [10]): 33.0%
- % T/C (median total diameter, tumor+leg) on day 16 (HT1080 tumors; [10]): 41.9%
- % T/C on day 0 (HT1080 tumors; PM01183 0.135 mg/kg): 100%
- % T/C on day 2 (HT1080 tumors; PM01183 0.135 mg/kg): 63.0%
- % T/C on day 4 (HT1080 tumors; PM01183 0.135 mg/kg): 62.9%
- % T/C on day 7 (HT1080 tumors; PM01183 0.135 mg/kg): 48.1%
- % T/C on day 9 (HT1080 tumors; PM01183 0.135 mg/kg): 36.0%
- % T/C on day 11 (HT1080 tumors; PM01183 0.135 mg/kg): 30.2%
- % T/C on day 14 (HT1080 tumors; PM01183 0.135 mg/kg): 33.0%
- % T/C on day 16 (HT1080 tumors; PM01183 0.135 mg/kg): 41.9%
- % T/C (median total diameter, tumor+leg) on day 9 (HT1080 tumors; PM01183 0.18 mg/kg iv days 0,7): 26.7%
- % T/C (median total diameter, tumor+leg) on day 11 (HT1080 tumors; PM01183 0.18 mg/kg iv days 0,7): 11.5%
- % T/C (median total diameter, tumor+leg) on day 14 (HT1080 tumors; PM01183 0.18 mg/kg iv days 0,7): 21.2%
- % T/C (median total diameter, tumor+leg) on day 16 (HT1080 tumors; PM01183 0.18 mg/kg iv days 0,7): 30.6%
- % T/C on day 0 (HT1080 tumors; PM01183 0.18 mg/kg): 100%
- % T/C on day 2 (HT1080 tumors; PM01183 0.18 mg/kg): 59.3%
- % T/C on day 4 (HT1080 tumors; PM01183 0.18 mg/kg): 40.0%
- % T/C on day 7 (HT1080 tumors; PM01183 0.18 mg/kg): 26.9%
- % T/C on day 9 (HT1080 tumors; PM01183 0.18 mg/kg): 26.7%
- % T/C on day 11 (HT1080 tumors; PM01183 0.18 mg/kg): 11.5%
- % T/C on day 14 (HT1080 tumors; PM01183 0.18 mg/kg): 21.2%
- % T/C on day 16 (HT1080 tumors; PM01183 0.18 mg/kg): 30.6%
- IC50 [1]: 3.5 nM
- IC50 [2]: 5 nM
- IC50 [3]: 2.6 nM
- IC50 [4]: 2.5 nM
- IC50 [5]: 3.2 nM
- IC50 [6]: 2 nM
- IC50 [7]: 3.6 nM
- IC50 [8]: 2.8 nM
- IC50 [9]: 3.7 nM
